Tests used:
MCF7 = assay: NCI-60 antiproliferative screening, MCF7; type: cell-based; conditions: Homo sapiens, MCF7 (Breast Cancer), read-out: Inhibition% values at 10 μM concentration
Excerpt: (§1) Then, 8f was submitted to NCI for antiproliferative evaluation against 59 different tumor cell lines. The cancer types of the NCI-60 program include leukemia, non-small cell lung cancer (NSCLC), colon cancer, CNS cancer, melanoma, ovary cancer, renal cancer, prostate cancer, and breast cancer.

T-47D = assay: NCI-60 antiproliferative screening, T-47D; type: cell-based; conditions: Homo sapiens, T47D, T-47D (Breast Cancer), read-out: Inhibition% values at 10 μM concentration
Excerpt: as §1

NCI/ADR-RES = assay: NCI-60 antiproliferative screening, NCI/ADR-RES; type: cell-based; conditions: Homo sapiens, NCI/ADR-RES (Ovarian Cancer), read-out: Inhibition% values at 10 μM concentration
Excerpt: as §1

COLO 205 = assay: NCI-60 antiproliferative screening, COLO 205; type: cell-based; conditions: Homo sapiens, COLO 205 (Colon Cancer), read-out: Inhibition% values at 10 μM concentration
Excerpt: as §1

HCT-116 = assay: NCI-60 antiproliferative screening, HCT-116; type: cell-based; conditions: Homo sapiens, HCT-116 (Colon Cancer), read-out: Inhibition% values at 10 μM concentration
Excerpt: as §1

K-562 = assay: NCI-60 antiproliferative screening, K-562; type: cell-based; conditions: Homo sapiens, K562, K-562 (Leukemia), read-out: Inhibition% values at 10 μM concentration
Excerpt: as §1

SNB-75 = assay: NCI-60 antiproliferative screening, SNB-75; type: cell-based; conditions: Homo sapiens, SNB-75 (CNS Cancer), read-out: Inhibition% values at 10 μM concentration
Excerpt: as §1

NCI-H226 = assay: NCI-60 antiproliferative screening, NCI-H226; type: cell-based; conditions: Homo sapiens, NCI-H226 (Non-Small Cell Lung Cancer), read-out: Inhibition% values at 10 μM concentration
Excerpt: as §1

[1] = test system: 59 different tumor cell lines; assay: NCI-60 antiproliferative evaluation, whole panel; type: cell-based; conditions: 10 μM, of 59 tumor cell lines
Excerpt: as §1

UACC-62 = assay: NCI-60 antiproliferative screening, UACC-62; type: cell-based; conditions: Homo sapiens, UACC-62 (Melanoma), read-out: Inhibition% values at 10 μM concentration
Excerpt: as §1

RPMI-8226 [2] = assay: Antiproliferative assay (Alamar blue, 72 h), RPMI-8226; type: cell-based, human; conditions: Homo sapiens, RPMI-8226 cells, three independent experiments, SD < 10%, read-out: Antiproliferative effect IC50, RPMI-8226
Method: The cells were cultured in IMDM (Gibco) medium with 20% FBS (Lonsera), 100 U/mL penicillin, and 100 µg/mL streptomycin (Solarbio). All cells were maintained at 37 °C in a humidified atmosphere of 5% CO2 in air. Briefly, 100 µL cell suspension or completed medium was plated into a 96-well plate. Compounds were added and incubated for 72 h. Then, 22 µL Alamar blue solution (1 mM) was pipetted into each well of a 96-well plate, and the plate was incubated for an additional 5~6 h. The absorbance (OD) was read at 530/590 nm. Data were normalized to vehicle groups (DMSO) and represented as the means of three independent measurements with standard errors of <20%. The IC50 values were calculated using Prism 5.0.

HCT116 = assay: Antiproliferative assay (Alamar blue, 72 h), HCT116; type: cell-based; conditions: Homo sapiens, HCT-116, HCT116 cells, three independent experiments, SD < 10%, read-out: Antiproliferative effect IC50, HCT116
BT-549 = assay: NCI-60 antiproliferative screening, BT-549; type: cell-based; conditions: Homo sapiens, BT-549 (Breast Cancer), read-out: Inhibition% values at 10 μM concentration
Excerpt: as §1

HS 578T = assay: NCI-60 antiproliferative screening, HS 578T; type: cell-based; conditions: Homo sapiens, HS 578T (Breast Cancer), read-out: Inhibition% values at 10 μM concentration
Excerpt: as §1

A498 = assay: NCI-60 antiproliferative screening, A498; type: cell-based; conditions: Homo sapiens, A498 (Renal Cancer), read-out: Inhibition% values at 10 μM concentration
Excerpt: as §1

HDAC2 = biological target: T1, HDAC2 (Homo sapiens, UniProt Q92769); assay: In vitro HDAC enzyme assay (Reaction Biology Corporation), HDAC2; type: biochemical; conditions: Table 2 isozyme screen; duplicate, SD < 15%
T1 construct: purchased Reaction Biology Corporation

MDA-MB-435 = assay: NCI-60 antiproliferative screening, MDA-MB-435; type: cell-based; conditions: Homo sapiens, MDA-MB-435 (Melanoma), read-out: Inhibition% values at 10 μM concentration
Excerpt: as §1

DU-145 = assay: NCI-60 antiproliferative screening, DU-145; type: cell-based; conditions: Homo sapiens, DU-145 (Prostate Cancer), read-out: Inhibition% values at 10 μM concentration
Excerpt: as §1

NCI-H23 = assay: NCI-60 antiproliferative screening, NCI-H23; type: cell-based; conditions: Homo sapiens, NCI-H23 (Non-Small Cell Lung Cancer), read-out: Inhibition% values at 10 μM concentration
Excerpt: as §1

SF-268 = assay: NCI-60 antiproliferative screening, SF-268; type: cell-based; conditions: Homo sapiens, SF-268 (CNS Cancer), read-out: Inhibition% values at 10 μM concentration
Excerpt: as §1

NCI-H322M = assay: NCI-60 antiproliferative screening, NCI-H322M; type: cell-based; conditions: Homo sapiens, NCI-H322M (Non-Small Cell Lung Cancer), read-out: Inhibition% values at 10 μM concentration
Excerpt: as §1

CCRF-CEM = assay: NCI-60 antiproliferative screening, CCRF-CEM; type: cell-based; conditions: Homo sapiens, CCRF-CEM (Leukemia), read-out: Inhibition% values at 10 μM concentration
Excerpt: as §1

RPMI-8226 [3] = assay: NCI-60 antiproliferative screening, RPMI-8226; type: cell-based; conditions: Homo sapiens, RPMI-8226 (Leukemia), read-out: Inhibition% values at 10 μM concentration
Excerpt: as §1

HL60 = assay: Antiproliferative assay (Alamar blue, 72 h), HL60; type: cell-based; conditions: Homo sapiens, HL-60, HL60 cells, three independent experiments, SD < 10%, read-out: Antiproliferative effect IC50, HL60
TK-10 = assay: NCI-60 antiproliferative screening, TK-10; type: cell-based; conditions: Homo sapiens, TK-10 (Renal Cancer), read-out: Inhibition% values at 10 μM concentration
Excerpt: as §1

CAKI-1 = assay: NCI-60 antiproliferative screening, CAKI-1; type: cell-based; conditions: Homo sapiens, CAKI-1 (Renal Cancer), read-out: Inhibition% values at 10 μM concentration
Excerpt: as §1

T1 sequence (Q92769 whole entry): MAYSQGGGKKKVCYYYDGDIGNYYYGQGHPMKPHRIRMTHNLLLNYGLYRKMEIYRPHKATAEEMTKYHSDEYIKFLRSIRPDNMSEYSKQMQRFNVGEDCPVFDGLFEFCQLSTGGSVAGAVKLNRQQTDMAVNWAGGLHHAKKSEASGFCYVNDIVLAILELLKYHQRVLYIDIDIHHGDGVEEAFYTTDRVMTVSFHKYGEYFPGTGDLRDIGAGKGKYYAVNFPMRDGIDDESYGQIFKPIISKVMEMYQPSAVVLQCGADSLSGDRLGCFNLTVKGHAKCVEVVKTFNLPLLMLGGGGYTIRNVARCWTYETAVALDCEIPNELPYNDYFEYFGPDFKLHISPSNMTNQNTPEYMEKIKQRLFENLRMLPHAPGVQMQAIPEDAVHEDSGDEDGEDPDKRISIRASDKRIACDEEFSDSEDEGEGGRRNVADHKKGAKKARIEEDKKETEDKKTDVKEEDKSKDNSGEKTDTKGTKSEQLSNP

Compound: COc1cccc(-c2nc3c(c(-c4cccc(OC)c4)n2)CCN(C(=O)CCCCCCC(=O)NO)C3)c1 [Compound 8f, 8-(2,4-Bis(3-methoxyphenyl)-5,8-dihydropyrido [3,4-d]pyrimidin-7(6H)-yl)-N-hydroxy-8-oxooctanamide]
- inhibition at 10 µM (MCF7): 92.1%
- inhibition at 10 µM (T-47D): 100%
- inhibition at 10 µM (NCI/ADR-RES): 100%
- inhibition at 10 µM (COLO 205): 100%
- inhibition at 10 µM (HCT-116): 96%
- inhibition at 10 µM (K-562): 90.2%
- inhibition at 10 µM (SNB-75): 71%
- inhibition at 10 µM (NCI-H226): 93.3%
- number of cell lines with percent inhibitions > 80% [1]: 56 cell lines
- inhibition at 10 µM (UACC-62): 100%
- IC50 (RPMI-8226 [2]): 2800 nM
- IC50 (HCT116): 3250 nM
- inhibition at 10 µM (BT-549): 81.9%
- inhibition at 10 µM (HS 578T): 97.8%
- inhibition at 10 µM (A498): 100%
- IC50 (HDAC2): 390 nM
- inhibition at 10 µM (MDA-MB-435): 95.8%
- inhibition at 10 µM (DU-145): 89.8%
- inhibition at 10 µM (NCI-H23): 100%
- inhibition at 10 µM (SF-268): 92.2%
- inhibition at 10 µM (NCI-H322M): 89%
- inhibition at 10 µM (CCRF-CEM): 85%
- inhibition at 10 µM (RPMI-8226 [3]): 88.7%
- IC50 (HL60): 3200 nM
- inhibition at 10 µM (TK-10): 100%
- inhibition at 10 µM (CAKI-1): 100%

From PMC10648541, “Design, Synthesis, and Antiproliferative Activity of Selective Histone Deacetylases 6 Inhibitors Containing a Tetrahydropyridopyrimidine Scaffold” (Molecules, 2023)
